The values that follow come from patent US20220323380A1, “DRUG COMBINATION FOR USE IN THE TREATMENT OF INFLAMMATORY DISEASES” (ISANAS AG, priority 2019, published 2022).

For data set [1] the following is noted: humans, compared with MK-4 (Sato 2012); cited from earlier work.
The conditions of data set [2]: in vivo; cited from earlier work.
In data set [3] the test system is patient suffering from MS. The conditions noted are these: daily 300 mg bupropion over four weeks, MRI after three months, MS patient with depression; cited from earlier work.
For data set [4], the system named is MS patients. The note with it: cited from earlier work.
Data set [5] has as its system PC12D cells. The conditions noted are these: cell cultures (Tsang 2002); cited from earlier work.
The subject of data set [6] is EAE rat model. The conditions noted are these: cited from earlier work.
Data set [7] deals with MS-patients. As to the kind of experiment: Treatment of MS patients with the triple combination (case reports, MS score). The format is in vivo, human. The note with it: Example 2: one MS patient, own words.
Source text: The scoring ranges from zero to ten points and is the sum of the physical score and cognitive score. Attributing half points was allowed to better cover the full scale and subtlety of MS symptoms.

On to `CC(C)=CCC/C(C)=C/CC/C(C)=C/CC/C(C)=C/CC/C(C)=C/CC/C(C)=C/CC/C(C)=C/CC1=C(C)C(=O)c2ccccc2C1=O` [MK-7], for which, in data set [1], the “bioavailability after oral intake” value is listed as “much higher bioavailability after oral intake than MK-4”. As for `CC1=CC(=O)c2ccccc2C1=O` [VK3, 2-methylnaphthalene-1,4-dione], the “reason for discontinued sales as prescription drug” value in data set [2] is “adverse effects and liver toxicity”. With `CC(NC(C)(C)C)C(=O)c1cccc(Cl)c1` (centres unmarked) [bupropion], the “MRI analysis of lesions” value in data set [3] is on record as “rather showed a reduction of the lesions than a progression”. `C=C1CC[C@H](O)C/C1=C/C=C1\CCC[C@]2(C)[C@@H]([C@H](C)CCCC(C)C)CC[C@@H]12` [vitamin D3, cholecalciferol]: in data set [4] (meta-analysis (Steinwart 2018), weekly dosage of 20,000 IU D3), the “correlation with treatment effect in MS” value is “did not provide any relevant correlation with treatment effect”. Consider `CC1=C(C/C=C(\C)CCC[C@H](C)CCC[C@H](C)CCCC(C)C)C(=O)c2ccccc2C1=O` [vitamin K1, phylloquinone], for which the “nerve growth factor-mediated neurite outgrowth” value in data set [5] is “promoting activity”. With Vitamin D, the “EDSS scores and annual relapse rate (ARR)” value in data set [4] (meta-analysis Zheng 2018) is “no therapeutic effect”. The “recurrence of relapse, worsening of disability (EDSS), MRI lesions” value in data set [4] (review Jagannath 2018) is listed as “no effect”.

On to menaquinone [VK2], for which, in data set [6] (given after the onset of EAE), the “efficacy in EAE” value was “not effective”. Moreover, in data set [6] (prophylactic intraperitoneal administration, 62.5 mg/kg/d), the “severity of EAE” value is on record as “ameliorated the severity of EAE”. Further, the “nerve growth factor-mediated neurite outgrowth” value in data set [5] is “promoting activity”. Consider “ocrelizumab: humanised monoclonal antibody that targets the CD20 marker on B lymphocytes”, for which the “patient's comparison of ocrelizumab with the combination therapy” value in data set [7] is given as “could not achieve what this combination therapy could”.
